Experiment [1] addresses PI3Kδ (p110δ/p85α) Recombinant Human Protein (Homo sapiens (Human), UniProt O00329). Briefly: PI3Kδ Scintillation Proximity Assay. It is filed as biochemical. The following applies: 20 μM PIP2, 2 μM ATP, 3.4 nM PI3Kδ, 120 min, room temperature. Summed up: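 Radiometric read-out: 33P-labelled PIP3 product captured on WGA SPA beads and counted, with IC50 fitted from percent activity relative to DMSO control. Enzyme (3.4 nM) was incubated 120 min at room temperature with 20 μM PIP2 and 2 μM ATP at pH 6.7, 2% DMSO.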
For orientation: Scintillation proximity formats need no separation of bound from free tracer.

Experiment [2] has as its system Phosphorylated Ribosomal Protein S6 (RPS6) in THP-1 cells. Nature of the experiment: THP-1 RPS6 ELISA Assay. It is filed as cell-based. The following applies: Homo sapiens; serum starved THP-1 cells, 2 hours with compound, 10 nM MCP-1 for 15 minutes, Phospho-RPS6 ELISA; read-out: PI3Kγ_THP1_RPS6_ELISA IC50. A digest of the protocol: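 Phospho-RPS6 in lysates measured by ELISA at 450 nm, corrected at 540 nm, after MCP-1 challenge (10 nM, 15 min) of THP-1 cells that were starved overnight and exposed to test compound for 2 h at 37° C, 2×10^5 cells/well. Curve fit of percent inhibition gives IC50.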
(In general: In an ELISA, binding on a coated surface is turned into a signal by an enzyme label.)

Experiment [3] deals with PI3Kγ (p110γ) Recombinant Human Protein (Homo sapiens (Human), UniProt P48736). Briefly: PI3K-γ Scintillation Proximity Assay. It is filed as biochemical. The following applies: 20 μM PIP2, 2 μM ATP, 13 nM PI3Kγ, 120 min, room temperature. A digest of the protocol:
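Recombinant human p110γ (13 nM) phosphorylated 20 μM PIP2 with 2 μM ATP plus [γ-33P]ATP in 20 mM MOPS pH 6.7, 10 mM MgCl2, 5 mM DTT, 0.03% CHAPS, 2% DMSO, 120 min at room temperature. Radiolabelled product was captured on WGA SPA beads and counted. IC50 came from curves of percent solvent-control activity.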

Here are results for eleven molecules from patent publication US11306079B2, “3-(5-amino-pyrazin-2-yl)-benzenesulfonamide derivatives and related compounds as PI3K-gamma kinase inhibitors” (Incyte Corporation, priority 2017, dated 2022).

The term IC50 denotes the point on the concentration scale where inhibition reaches its midpoint.

Counter-ions that a name gives are not always drawn.

Chain of PI3Kγ (p110γ) Recombinant Human Protein (P48736 whole entry): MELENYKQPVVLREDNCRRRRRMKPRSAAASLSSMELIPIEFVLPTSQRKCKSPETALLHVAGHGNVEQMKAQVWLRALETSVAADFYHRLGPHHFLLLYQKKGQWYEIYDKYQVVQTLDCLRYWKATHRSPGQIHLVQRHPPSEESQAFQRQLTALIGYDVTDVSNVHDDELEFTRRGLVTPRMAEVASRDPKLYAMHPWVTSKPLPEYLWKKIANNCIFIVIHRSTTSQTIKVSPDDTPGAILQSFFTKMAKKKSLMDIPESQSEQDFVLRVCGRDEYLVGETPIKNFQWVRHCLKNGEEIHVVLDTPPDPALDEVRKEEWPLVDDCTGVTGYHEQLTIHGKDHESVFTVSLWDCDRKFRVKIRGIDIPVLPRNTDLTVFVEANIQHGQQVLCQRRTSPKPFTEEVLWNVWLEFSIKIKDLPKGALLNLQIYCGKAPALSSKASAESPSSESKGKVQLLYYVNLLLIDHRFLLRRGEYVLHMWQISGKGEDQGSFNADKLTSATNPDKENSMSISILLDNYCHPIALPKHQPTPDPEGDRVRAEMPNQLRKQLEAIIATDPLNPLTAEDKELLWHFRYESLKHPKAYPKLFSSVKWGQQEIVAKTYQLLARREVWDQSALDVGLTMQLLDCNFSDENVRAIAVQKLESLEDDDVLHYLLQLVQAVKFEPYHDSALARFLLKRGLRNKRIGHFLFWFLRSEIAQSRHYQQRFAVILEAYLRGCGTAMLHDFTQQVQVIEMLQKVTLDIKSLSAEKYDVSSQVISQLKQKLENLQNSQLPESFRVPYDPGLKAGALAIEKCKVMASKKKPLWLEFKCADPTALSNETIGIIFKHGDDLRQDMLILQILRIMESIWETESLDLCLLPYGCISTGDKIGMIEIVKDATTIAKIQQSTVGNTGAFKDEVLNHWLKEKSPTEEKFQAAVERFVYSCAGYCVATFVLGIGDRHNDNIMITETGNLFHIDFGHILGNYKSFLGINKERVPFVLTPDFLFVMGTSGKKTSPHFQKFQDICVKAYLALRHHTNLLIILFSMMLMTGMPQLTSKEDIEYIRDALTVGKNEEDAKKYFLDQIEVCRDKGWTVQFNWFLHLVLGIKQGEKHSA
Chain of PI3Kδ (p110δ/p85α) Recombinant Human Protein (O00329 whole entry): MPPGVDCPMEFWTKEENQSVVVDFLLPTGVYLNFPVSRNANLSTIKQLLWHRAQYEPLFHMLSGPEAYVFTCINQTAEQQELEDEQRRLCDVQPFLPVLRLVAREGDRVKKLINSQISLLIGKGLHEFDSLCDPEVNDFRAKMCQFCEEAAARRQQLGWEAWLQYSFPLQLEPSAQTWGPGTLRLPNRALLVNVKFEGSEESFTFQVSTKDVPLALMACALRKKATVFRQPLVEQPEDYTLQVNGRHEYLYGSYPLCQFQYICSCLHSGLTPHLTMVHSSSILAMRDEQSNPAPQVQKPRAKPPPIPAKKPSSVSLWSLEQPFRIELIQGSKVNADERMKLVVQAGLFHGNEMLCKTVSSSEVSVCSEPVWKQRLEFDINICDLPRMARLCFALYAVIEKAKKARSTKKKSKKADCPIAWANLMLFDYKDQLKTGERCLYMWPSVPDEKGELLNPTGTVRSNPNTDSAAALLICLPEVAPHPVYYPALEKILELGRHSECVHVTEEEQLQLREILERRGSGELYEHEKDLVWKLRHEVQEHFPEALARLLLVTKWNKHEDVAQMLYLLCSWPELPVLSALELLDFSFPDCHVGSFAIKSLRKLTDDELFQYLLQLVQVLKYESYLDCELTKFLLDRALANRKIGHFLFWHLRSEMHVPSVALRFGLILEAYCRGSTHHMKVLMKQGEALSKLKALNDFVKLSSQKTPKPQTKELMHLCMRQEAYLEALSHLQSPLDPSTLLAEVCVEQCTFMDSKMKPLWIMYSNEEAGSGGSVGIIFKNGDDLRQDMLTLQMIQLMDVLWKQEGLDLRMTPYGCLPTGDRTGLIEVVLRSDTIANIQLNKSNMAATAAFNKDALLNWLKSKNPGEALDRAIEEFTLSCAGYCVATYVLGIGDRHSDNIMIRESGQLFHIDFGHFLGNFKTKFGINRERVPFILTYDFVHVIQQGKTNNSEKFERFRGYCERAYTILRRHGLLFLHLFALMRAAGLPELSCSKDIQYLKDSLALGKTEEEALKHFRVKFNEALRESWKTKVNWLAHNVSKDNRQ
Chain of PI3Kδ (p110δ/p85α) Recombinant Human Protein (P27986 whole entry partner): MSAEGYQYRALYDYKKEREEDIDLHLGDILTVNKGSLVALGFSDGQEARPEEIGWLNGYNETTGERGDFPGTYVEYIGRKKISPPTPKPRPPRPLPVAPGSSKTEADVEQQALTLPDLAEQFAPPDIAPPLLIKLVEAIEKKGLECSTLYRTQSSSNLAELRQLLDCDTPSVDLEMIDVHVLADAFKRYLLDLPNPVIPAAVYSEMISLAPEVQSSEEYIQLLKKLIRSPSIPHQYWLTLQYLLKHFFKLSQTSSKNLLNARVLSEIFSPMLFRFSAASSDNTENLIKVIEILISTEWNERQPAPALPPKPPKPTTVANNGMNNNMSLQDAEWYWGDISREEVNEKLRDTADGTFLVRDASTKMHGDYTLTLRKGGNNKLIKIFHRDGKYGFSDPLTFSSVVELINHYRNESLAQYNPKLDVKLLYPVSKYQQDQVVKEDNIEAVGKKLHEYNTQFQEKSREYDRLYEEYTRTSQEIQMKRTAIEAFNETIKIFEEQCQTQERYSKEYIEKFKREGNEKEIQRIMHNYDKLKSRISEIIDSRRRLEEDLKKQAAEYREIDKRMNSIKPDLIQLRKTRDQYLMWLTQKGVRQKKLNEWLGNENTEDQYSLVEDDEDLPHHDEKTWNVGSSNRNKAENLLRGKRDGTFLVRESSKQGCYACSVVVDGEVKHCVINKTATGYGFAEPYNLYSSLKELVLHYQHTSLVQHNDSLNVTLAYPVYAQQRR

Turning to `Cc1ncc(-c2nc(-c3cc(S(=O)(=O)NC45CCC(CO)(CC4)OC5)ccc3C)cnc2N)s1` [Example 6, 3-(5-Amino-6-(2-methylthiazol-5-yl)pyrazin-2-yl)-N-(1-(hydroxymethyl)-2-oxabicyclo[2.2.2]octan-4-yl)-4-methylbenzenesulfonamide trifluoroacetate salt], the IC50 in experiment [1], in experiment [2] and in experiment [3] was no more than 100 nM each time.
Regarding `[2H]C([2H])([2H])c1ccc(S(=O)(=O)NC23CCC(C#N)(C2)C3)cc1-c1cnc(N)c(-c2ncccn2)n1` [Example 70, 3-(5-Amino-6-(pyrimidin-2-yl)pyrazin-2-yl)-N-(4-cyanobicyclo[2.1.1]hexan-1-yl)-4-(methyl-d3)benzenesulfonamide trifluoroacetate salt], the IC50 was less than 2000 nM in experiment [1], no less than 1000 nM in experiment [2] and no more than 100 nM in experiment [3].
Consider `[2H]C([2H])([2H])c1ccc(S(=O)(=O)NC23CCC(O)(CC2)C3)cc1-c1cnc(N)c(-n2cncn2)n1` [Example 47, 3-(5-Amino-6-(1H-1,2,4-triazol-1-yl)pyrazin-2-yl)-N-(4-hydroxybicyclo[2.2.1]heptan-1-yl)-4-(methyl-d3)benzenesulfonamide Trifluoroacetate Salt], for which the IC50 in experiment [1], in experiment [2] and in experiment [3] was no more than 100 nM each time.
`[2H]C([2H])([2H])c1ccc(S(=O)(=O)NC23CC(C#N)(C2)C3)cc1-c1cnc(N)c(-c2ccncn2)n1` [Example 79, 3-(5-Amino-6-(pyrimidin-4-yl)pyrazin-2-yl)-N-(3-cyanobicyclo[1.1.1]pentan-1-yl)-4-(methyl-d3)benzenesulfonamide Trifluoroacetate Salt]: the IC50 in experiment [1], in experiment [2] and in experiment [3] was no more than 100 nM throughout.
For `Cc1ccc(S(=O)(=O)NC23COC(CO)(C2)C3)cc1-c1cnc(N)c(-c2cnc(C3CC3)s2)c1` [Example 89, 3-(6-amino-5-(2-cyclopropylthiazol-5-yl)pyridin-3-yl)-N-(1-(hydroxymethyl)-2-oxabicyclo[2.1.1]hexan-4-yl)-4-methylbenzenesulfonamide], the values for the IC50 in experiment [1], in experiment [2] and in experiment [3] were no more than 500 nM, no more than 100 nM and no more than 100 nM, respectively.
In the case of `CC(=O)NC12CC(NS(=O)(=O)c3ccc(C)c(-c4cnc(N)c(-n5cncn5)n4)c3)(C1)C2` [Example 40, N-(3-(3-(5-Amino-6-(1H-1,2,4-triazol-1-yl)pyrazin-2-yl)-4-methylphenylsulfonamido)bicyclo[1.1.1]pentan-1-yl)acetamide Trifluoroacetate Salt], the IC50 in experiment [1] was no more than 500 nM; in experiment [2], no more than 1000 nM; in experiment [3] it was no more than 100 nM.
The like results for `[2H]C([2H])([2H])c1ccc(S(=O)(=O)NC23CCC(O)(C2)C3)cc1-c1cnc(N)c(-c2ccncn2)n1` [Example 80, 3-(5-Amino-6-(pyrimidin-4-yl)pyrazin-2-yl)-N-(4-hydroxybicyclo[2.1.1]hexan-1-yl)-4-(methyl-d3)benzenesulfonamide trifluoroacetate salt] were, in that order, no more than 100 nM, no more than 100 nM and no more than 100 nM.
The like results for `[2H]C([2H])([2H])c1ccc(S(=O)(=O)NC23CCC(C#N)(C2)C3)cc1-c1cnc(N)c(-c2ccncn2)n1` [Example 72, 3-(5-Amino-6-(pyrimidin-4-yl)pyrazin-2-yl)-N-(4-cyanobicyclo[2.1.1]hexan-1-yl)-4-(methyl-d3)benzenesulfonamide trifluoroacetate salt] were, in that order, no more than 100 nM, no more than 100 nM and no more than 100 nM.
The like results for `Cc1ccc(S(=O)(=O)NC23CCC(C#N)(C2)C3)cc1-c1cnc(N)c(-c2cn(C)nc2C)n1` [Example 11, 3-(5-Amino-6-(1,3-dimethyl-1H-pyrazol-4-yl)pyrazin-2-yl)-N-(4-cyanobicyclo[2.1.1]hexan-1-yl)-4-methylbenzensulfonamide trifluoroacetate salt] were, in that order, no more than 500 nM, no more than 500 nM and no more than 100 nM.
As for `Cc1ccc(S(=O)(=O)NC23CC(CO)(C2)C3)cc1-c1cnc(N)c(-c2cn(C)nc2C)n1` [Example 15, 3-(5-amino-6-(1,3-dimethyl-1H-pyrazol-4-yl)pyrazin-2-yl)-N-(3-(hydroxymethyl)bicyclo[1.1.1]pentan-1-yl)-4-methylbenzenesulfonamide trifluoroacetate salt], the IC50 in experiment [1] was no more than 500 nM; in experiment [2] it was no more than 500 nM; in experiment [3] it was no more than 100 nM.
Consider `Cc1ccc(S(=O)(=O)NC23CCC(O)(CC2)C3)cc1-c1cnc(N)c(-n2cncn2)n1` [Example 26, 3-(5-Amino-6-(1H-1,2,4-triazol-1-yl)pyrazin-2-yl)-N-(4-hydroxybicyclo[2.2.1]heptan-1-yl)-4-methylbenzenesulfonamide trifluoroacetate salt], for which the IC50 in experiment [1], in experiment [2] and in experiment [3] was no more than 100 nM each time.
